Like-named read-outs stand apart in the source and are kept apart here.
How the values were obtained:
[1] = tested on: neuropathic hyperalgesia in rats; assay: Seltzer model (partial sciatic nerve ligation) of neuropathic pain, paw withdrawal threshold; format: in vivo; conditions: 30 mg/kg p.o., rat, Seltzer model; assessed 1, 3 and 5 h after administration
Procedure: Test Animals: Each experiment uses rats weighing between 200-260 g at the start of the experiment. The rats are group-housed and have free access to food and water at all times, except prior to oral administration of a test compound when food is removed for 16 hours before dosing. A control group acts as a comparison to rats treated with a compound of Formulae I-XXXIII. The control group is administered the carrier as used for the test compound. The volume of carrier administered to the control group is the same as the volume of carrier and test compound administered to the test group.
In the Seltzer model, the partial sciatic nerve ligation model of neuropathic pain was used to produce neuropathic hyperalgesia in rats (Seltzer et al., Pain 43:205-218 (1990)). Partial ligation of the left sciatic nerve was performed under inhalation anesthesia, e.g., isoflurane/O2. Following induction of anesthesia, the left thigh of the rat was shaved and the sciatic nerve exposed at high thigh level through a small incision and was carefully cleared of surrounding connective tissues at a site near the trocanther just distal to the point at which the posterior biceps semitendinosus nerve branches off of the common sciatic nerve. A 7-0 silk suture was inserted into the nerve, e.g., with a ⅜ curved, reversed-cutting mini-needle, and tightly ligated so that the dorsal ⅓ to ½ of the nerve thickness was held within the ligature. The wound was closed, e.g., with a single muscle suture (4-0 nylon (Vicryl)) and vetbond tissue glue. Following surgery, the wound area was dusted with antibiotic powder. Sham-treated rats undergo an identical surgical procedure except that the sciatic nerve is not manipulated. Following surgery, animals were weighed and placed on a warm pad until they recovered from anesthesia. Animals were then returned to their home cages until behavioral testing began. The animals were assessed for response to noxious mechanical stimuli by determining PWT, as described below, prior to surgery (baseline), then immediately prior to and 1, 3, and 5 hours after drug administration for rear paw of the animal. Percentage reversal of neuropathic hyperalgesia is defined as: […]
The following compounds were tested and produced a statistically significant increase in paw withdrawal threshold when administered at 30 mg/kg p.o. in the Seltzer model of neuropathic pain at the time points indicated:
Mechanical Hyperalgesia: Sensitivity to noxious mechanical stimuli can be measured in animals using the paw pressure test to assess mechanical hyperalgesia. In rats, hind paw withdrawal thresholds (“PWT”), measured in grams, in response to a noxious mechanical stimulus are determined using an analgesymeter (Model 7200, commercially available from Ugo Basile of Italy), as described in Stein (Biochemistry & Behavior 31: 451-455 (1988)). The rat's paw is placed on a small platform, and weight is applied in a graded manner up to a maximum of 250 grams. The endpoint is taken as the weight at which the paw is completely withdrawn. PWT is determined once for each rat at each time point. PWT can be measured only in the injured paw, or in both the injured and non-injured paw. In one non-limiting embodiment, mechanical hyperalgesia associated with nerve injury induced pain (neuropathic pain) can be assessed in rats. Rats are tested prior to surgery to determine a baseline, or normal, PWT. Rats are tested again 2 to 3 weeks post-surgery, prior to, and at different times after (e.g. 1, 3, 5 and 24 hr) drug administration.

[2] = target: human Nav1.7 (Homo sapiens (Human), UniProt Q15858); assay: FLIPR or FLIPR TETRA sodium dye assay with KCl and test article pre-incubation; format: cell-based; conditions: read-out: Nav1.7 IC50 (μM) ± SEM
Sequence of human Nav1.7 (Q15858 other isoform, or with tags, fused parts or gaps): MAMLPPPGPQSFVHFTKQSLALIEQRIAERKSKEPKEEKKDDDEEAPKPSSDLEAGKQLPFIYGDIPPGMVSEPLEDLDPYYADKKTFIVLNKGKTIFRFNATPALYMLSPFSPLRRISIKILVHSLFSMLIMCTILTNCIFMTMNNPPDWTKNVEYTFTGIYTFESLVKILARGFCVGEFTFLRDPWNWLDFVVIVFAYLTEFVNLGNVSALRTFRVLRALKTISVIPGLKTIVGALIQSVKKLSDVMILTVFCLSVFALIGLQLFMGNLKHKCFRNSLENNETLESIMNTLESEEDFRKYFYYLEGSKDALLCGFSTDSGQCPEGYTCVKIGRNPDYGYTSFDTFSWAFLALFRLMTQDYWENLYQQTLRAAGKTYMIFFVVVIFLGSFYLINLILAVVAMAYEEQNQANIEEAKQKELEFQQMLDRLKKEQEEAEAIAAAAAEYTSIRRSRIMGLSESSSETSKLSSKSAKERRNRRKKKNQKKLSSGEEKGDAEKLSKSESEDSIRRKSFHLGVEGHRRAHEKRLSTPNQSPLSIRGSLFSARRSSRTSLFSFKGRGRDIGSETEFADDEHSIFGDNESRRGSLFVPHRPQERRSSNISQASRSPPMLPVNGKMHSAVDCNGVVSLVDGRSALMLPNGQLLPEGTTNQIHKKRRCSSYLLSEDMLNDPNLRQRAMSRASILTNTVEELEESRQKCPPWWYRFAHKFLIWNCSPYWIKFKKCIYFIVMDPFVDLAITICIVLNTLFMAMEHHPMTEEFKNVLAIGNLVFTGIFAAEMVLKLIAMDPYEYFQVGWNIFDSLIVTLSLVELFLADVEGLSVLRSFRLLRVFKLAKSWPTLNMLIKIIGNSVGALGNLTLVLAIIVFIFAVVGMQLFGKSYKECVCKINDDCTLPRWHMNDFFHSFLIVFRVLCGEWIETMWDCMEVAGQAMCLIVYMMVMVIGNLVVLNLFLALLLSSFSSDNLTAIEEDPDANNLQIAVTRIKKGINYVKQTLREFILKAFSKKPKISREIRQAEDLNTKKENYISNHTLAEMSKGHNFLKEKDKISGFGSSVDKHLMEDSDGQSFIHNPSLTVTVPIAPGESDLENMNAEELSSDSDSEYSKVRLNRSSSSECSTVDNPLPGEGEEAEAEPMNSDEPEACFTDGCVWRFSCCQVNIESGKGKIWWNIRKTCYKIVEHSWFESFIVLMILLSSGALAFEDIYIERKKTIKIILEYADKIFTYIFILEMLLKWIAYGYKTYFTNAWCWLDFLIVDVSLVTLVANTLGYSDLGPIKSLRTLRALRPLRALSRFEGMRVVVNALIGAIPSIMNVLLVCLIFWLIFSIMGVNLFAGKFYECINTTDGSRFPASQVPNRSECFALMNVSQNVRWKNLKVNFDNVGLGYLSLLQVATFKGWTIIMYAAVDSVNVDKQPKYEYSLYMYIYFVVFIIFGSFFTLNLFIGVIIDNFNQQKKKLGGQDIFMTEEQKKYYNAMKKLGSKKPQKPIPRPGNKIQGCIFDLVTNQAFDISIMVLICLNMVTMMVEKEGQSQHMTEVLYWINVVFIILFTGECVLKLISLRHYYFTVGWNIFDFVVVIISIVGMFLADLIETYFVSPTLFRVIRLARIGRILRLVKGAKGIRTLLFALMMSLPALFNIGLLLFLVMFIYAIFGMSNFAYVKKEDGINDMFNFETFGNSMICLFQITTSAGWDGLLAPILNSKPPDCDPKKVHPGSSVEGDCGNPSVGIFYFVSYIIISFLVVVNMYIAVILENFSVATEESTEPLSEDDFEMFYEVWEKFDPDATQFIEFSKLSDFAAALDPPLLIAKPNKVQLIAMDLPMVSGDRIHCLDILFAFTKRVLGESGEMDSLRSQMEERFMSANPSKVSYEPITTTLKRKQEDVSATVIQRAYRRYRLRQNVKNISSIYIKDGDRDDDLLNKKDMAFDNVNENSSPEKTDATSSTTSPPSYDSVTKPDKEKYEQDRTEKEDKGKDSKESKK

[3] = recombinant human Nav1.7 in HEK293 cells, CoroNa Green sodium dye, veratridine + scorpion venom

SMILES | IC50 [2, 3] [µM] | also measured
OC[C@H](O)c1cccc(-c2ccc(Oc3ccc(C(F)(F)F)cc3)cc2)n1 [compound 5, (R)-1-(6-(4-(4-(trifluoromethyl)phenoxy)phenyl)pyridin-2-yl)ethane-1,2-diol] |  | Time post-dose (h) with statistically significant increase in paw withdrawal threshold [1]: 1 h; IC50 [2]: 0.16 ± 0.07 µM
NC(=O)c1cc([C@@H](O)CO)cc(-c2ccc(Oc3ccc(F)cc3)cc2)n1 [compound 40, (R)-4-(1,2-dihydroxyethyl)-6-(4-(4-fluorophenoxy)phenyl)picolinamide] |  | Time post-dose (h) with statistically significant increase in paw withdrawal threshold [1]: 1 h
NC(=O)c1cc([C@@H](O)CO)cc(-c2ccc(Oc3ccc(Cl)cc3F)cc2)n1 [compound 141, (R)-6-(4-(4-chloro-2-fluorophenoxy)phenyl)-4-(1,2-dihydroxyethyl) picolinamide] | 0.07 ± 0.01 | 
NC(=O)c1cc([C@@H](O)CO)cc(-c2cccc(Oc3ccc(F)cc3)c2)n1 [compound 142, 4-((R)-1,2-dihydroxy-ethyl)-6-[3-(4-fluoro-phenoxy)-phenyl]-pyridine-2-carboxylic acid amide] | 5.3 ± 1.6 | 
NC(=O)c1cc(-c2ccc(Oc3ccc(F)cc3)cc2)cc(N(CC(=O)O)c2ccccc2)n1 [compound 143, ({6-Carbamoyl-4-[4-(4-fluoro-phenoxy)-phenyl]-pyridin-2-yl}phenyl-amino)-acetic acid] | > 20 | 
NC(=O)c1cc(-c2ccc(Oc3ccc(F)cc3)cc2)cc(N(CCC(=O)O)c2ccccc2)n1 [compound 144, 3-({6-Carbamoyl-4-[4-(4-fluoro-phenoxy)-phenyl]-pyridin-2-yl}phenyl-amino)-propionic acid] | > 20 | 
NC(=O)c1cc(N(CCC(=O)O)c2ccccc2)cc(-c2ccc(Oc3ccc(F)cc3)cc2)n1 [compound 145, 3-({2-Carbamoyl-6-[4-(4-fluoro-phenoxy)-phenyl]-pyridin-4-yl}phenyl-amino)-propionic acid] | 1.25 ± 0.03 | 
CN(c1ccccc1)c1cc(-c2ccc(Oc3ccc(C#N)cc3)cc2)cc(C(N)=O)n1 [compound 146, 4-[4-(4-Cyano-phenoxy)-phenyl]-6-(methyl-phenyl-amino)-pyridine2-carboxylic acid amide] | 0.09 ± 0.004 | 
CN(c1ccccc1)c1cc(C(N)=O)nc(-c2ccc(Oc3ccc(C#N)cc3)cc2)c1 [compound 147, 6-[4-(4-Cyano-phenoxy)-phenyl]-4-(methyl-phenyl-amino)-pyridine-2-carboxylic acid amide] | 1.6 ± 0.26 | 
CN(c1ccccc1)c1cc(-c2ccc(Oc3ccc(C(F)(F)F)cc3)cc2)cc(C(N)=O)n1 [compound 148, 6-(Methyl-phenyl-amino)-4-[4-(4-trifluoromethyl-phenoxy)phenyl]-pyridine-2-carboxylic acid amide] | 0.25 ± 0.08 | 
CN(c1ccccc1)c1cc(C(N)=O)nc(-c2ccc(Oc3ccc(C(F)(F)F)cc3)cc2)c1 [compound 149, 4-(Methyl-phenyl-amino)-6-[4-(4-trifluoromethyl-phenoxy)phenyl]-pyridine-2-carboxylic acid amide] | 10 to 20 | 
NC(=O)c1cc(N(CCc2nn[nH]n2)c2ccccc2)cc(-c2ccc(Oc3ccc(F)cc3)cc2)n1 [compound 150, 6-[4-(4-Fluoro-phenoxy)-phenyl]-4-{phenyl-[2-(2H-tetrazol-5-yl)-ethyl]-amino}-pyridine-2-carboxylic acid amide] | 0.46 ± 0.04 | 
NC(=O)c1cc(-c2ccc(Oc3ccc(F)cc3)cc2)cc(N(CCc2nn[nH]n2)c2ccccc2)n1 [compound 151, 4-[4-(4-Fluoro-phenoxy)-phenyl]-6-{phenyl-[2-(2H-tetrazol-5-yl)-ethyl]-amino}-pyridine-2-carboxylic acid amide] | 0.16 ± 0.03 | 
O=C(O)c1cc(N(CCc2nn[nH]n2)c2ccccc2)cc(-c2ccc(Oc3ccc(F)cc3)cc2)n1 [compound 152, 6-[4-(4-Fluoro-phenoxy)-phenyl]-4-{phenyl-[2-(2H-tetrazol-5-yl)ethyl]-amino}-pyridine-2-carboxylic acid] | 1.87 ± 0.68 | 
O=C(O)c1cc(-c2ccc(Oc3ccc(F)cc3)cc2)cc(N(CCc2nn[nH]n2)c2ccccc2)n1 [compound 153, 4-[4-(4-Fluoro-phenoxy)-phenyl]-6-{phenyl-[2-(2H-tetrazol-5-yl)ethyl]-amino}-pyridine-2-carboxylic acid] | 2.13 ± 0.55 | 
NC(=O)c1cc([C@H](O)CO)cc(-c2ccc(-c3ccc(F)cc3)cc2)n1 [compound 154, 4-((S)-1,2-Dihydroxy-ethyl)-6-(4′-fluoro-biphenyl-4-yl)pyridine-2-carboxylic acid amide] | 1.12 ± 0.07 | 
NC(=O)c1cc([C@@H](O)CO)cc(-c2ccc(-c3ccc(F)cc3)cc2)n1 [compound 155, 4-((R)-1,2-Dihydroxy-ethyl)-6-(4′-fluoro-biphenyl-4-yl)pyridine-2-carboxylic acid amide] | 2.78 ± 0.61 | 
NC(=O)c1cc(-c2ccc(Oc3ccc(OC(F)(F)F)cc3)cc2)cc([C@H](O)CO)n1 [compound 156, 6-((S)-1,2-Dihydroxy-ethyl)-4-[4-(4-trifluoromethoxy-phenoxy)phenyl]-pyridine-2-carboxylic acid amide] | 0.13 ± 0.02 | 
NC(=O)c1cc(-c2ccc(Oc3ccc(OC(F)(F)F)cc3)cc2)cc([C@@H](O)CO)n1 [compound 157, 6-((R)-1,2-Dihydroxy-ethyl)-4-[4-(4-trifluoromethoxy-phenoxy)phenyl]-pyridine-2-carboxylic acid amide] | 0.12 ± 0.008 | 
NC(=O)c1cc(-c2ccc(Oc3cccc(OC(F)(F)F)c3)cc2)cc([C@H](O)CO)n1 [compound 158, 6-((S)-1,2-Dihydroxy-ethyl)-4-[4-(3-trifluoromethoxy-phenoxy)phenyl]-pyridine-2-carboxylic acid amide] | 0.16 ± 0.01 | 
NC(=O)c1cc([C@H](O)CO)cc(-c2ccc(Oc3ccc(OC(F)(F)F)cc3)cc2)n1 [compound 159, 4-((S)-1,2-Dihydroxy-ethyl)-6-[4-(4-trifluoromethoxy-phenoxy)phenyl]-pyridine-2-carboxylic acid amide] | 0.3 ± 0.02 | 
NC(=O)c1cc(-c2ccc(-c3ccc(F)cc3)cc2)cc([C@H](O)CO)n1 [compound 160, 6-((S)-1,2-Dihydroxy-ethyl)-4-(4′-fluoro-biphenyl-4-yl)pyridine-2-carboxylic acid amide] |  | IC50 [2]: 0.49 ± 0.12 µM
NC(=O)c1cc([C@@H](O)CO)cc(-c2ccc(Oc3ccc(OC(F)(F)F)cc3)cc2)n1 [compound 161, 4-((R)-1,2-Dihydroxy-ethyl)-6-[4-(4-trifluoromethoxy-phenoxy)phenyl]-pyridine-2-carboxylic acid amide] | 1.38 ± 0.2 | 
NC(=O)c1cc([C@H](O)CO)cc(-c2ccc(Oc3cccc(OC(F)(F)F)c3)cc2)n1 [compound 163, 4-((S)-1,2-Dihydroxy-ethyl)-6-[4-(3-trifluoromethoxy-phenoxy)phenyl]-pyridine-2-carboxylic acid amide] | 0.63 ± 0.07 | 
NC(=O)c1cc([C@@H](O)CO)cc(-c2ccc(Oc3cccc(OC(F)(F)F)c3)cc2)n1 [compound 164, 4-((R)-1,2-Dihydroxy-ethyl)-6-[4-(3-trifluoromethoxy-phenoxy)phenyl]-pyridine-2-carboxylic acid amide] | 0.49 ± 0.1 | 
C[C@H](Nc1cc(C#N)nc(-c2ccc(Oc3ccc(F)cc3)cc2)c1)C(N)=O [compound 165, (S)-2-((2-cyano-6-(4-(4-fluorophenoxy)phenyl)pyridin-4-yl)amino)propanamide] | 1.97 ± 0.49 | 
C[C@H](Nc1cc(C#N)cc(-c2ccc(Oc3ccc(F)cc3)cc2)n1)C(N)=O [compound 166, (S)-2-((4-cyano-6-(4-(4-fluorophenoxy)phenyl)pyridin-2-yl)amino)propanamide] | 4.32 ± 1 | 
C[C@H](Nc1cc(C(N)=O)nc(-c2ccc(Oc3ccc(F)cc3)cc2)c1)C(N)=O [compound 167, (S)-4-((1-amino-1-oxopropan-2-yl)amino)-6-(4-(4-fluorophenoxy)phenyl) picolinamide] |  | IC50 [2]: 0.73 ± 0.1 µM
